The record followed here is ChEMBL document CHEMBL1158299, “Effects on cultured neonatal mouse calvaria of the flavonoids isolated from Boerhaavia repens” (1996).

Common to all, as to conditions: Bone element
For assay [1], the system named is Bone. Nature of the assay: Inhibition of PTH-induced bone resorption in mouse parietal bone culture assessed as 45Ca2 release into culture medium at 200 uM by liquid scintillation counting. Format: functional, tissue-based.
For assay [2], the system named is Bone. Nature of the assay: Inhibition of PTH-induced bone resorption in mouse parietal bone culture assessed as 45Ca2 release into culture medium at 200 uM after 4 to 6 days by liquid scintillation counting. The assay is classed as functional.
For assay [3], the system named is Bone. Nature of the assay: Inhibition of bone resorption in mouse parietal bone culture assessed as 45Ca2 release into culture medium at 200 uM after 0 to 3 days by liquid scintillation counting. Format: functional.
Assay [4] concerns Bone. Nature of the assay: Inhibition of bone resorption in mouse parietal bone culture assessed as 45Ca2 release into culture medium at 200 uM after 4 to 6 days by liquid scintillation counting. The assay is classed as functional.

The source made the active and inactive calls. The calls are words filed in the database; no cut-off is given here.

Turning to `COc1c(O)cc2oc(-c3ccc(O)cc3)c(O[C@@H]3O[C@H](CO[C@@H]4O[C@@H](C)[C@H](O)[C@@H](O)[C@H]4O)[C@H](O)[C@H](O)[C@H]3O)c(=O)c2c1O`, in the assay on Bone [1], the result was inactive.

What is called inhibition is the relative decrease from the control value, in per cent. As to `COc1cc2oc(-c3ccc(O)cc3)c(O[C@@H]3O[C@H](CO)[C@@H](O)[C@H](O)[C@H]3O[C@@H]3O[C@H](CO)[C@H](O)[C@H](O)[C@H]3O)c(=O)c2c(O)c1OC`, the inhibition at 200 µM in the assay with Bone [2] was 60.3%; with Bone [3], 29.1%; in the assay on Bone [4] it was 38%.

Consider `COc1cc2oc(-c3ccc(O)cc3)c(O[C@@H]3O[C@H](CO)[C@H](O)[C@H](O)[C@H]3O)c(=O)c2c(O)c1OC`, for which the inhibition at 200 µM in the assay with Bone [2] stood at 55.3%; in the assay on Bone [3] it was 20.6%; with Bone [4], 23.1%.
